The record followed here is PubChem BioAssay (NCI).

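Tested at 5 concentrations; 48 h exposure; 96-well plates; endpoints linearly interpolated, else capped at highest concentration. Here, GI50 denotes the concentration required for 50% inhibition of growth. The concentration for full growth arrest is given as TGI.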

Test systems include CCRF-CEM leukemia; HL-60(TB) leukemia; NCI-H226 lung; ACHN renal; TK-10 renal; SF-539 CNS; SN12C renal; OVCAR-5 ovarian; NCI-H23 lung; KM12 colon.
Common to all, as to assay: NCI-60 cell line screen, 48 h

For `C/C(=C(/c1ccc(O)cc1)c1ccc(OCCN2CCCC2)cc1)c1ccccc1`, the GI50 in the assay on CCRF-CEM leukemia is 3.2 µM; with HL-60(TB) leukemia it was 2.04 µM; with NCI-H226 lung, 11.3 µM; with ACHN renal, 4.28 µM; with TK-10 renal, 4.61 µM; in the assay on SF-539 CNS, 1.81 µM. Also, the GI50 is 9.17 µM in the assay with SN12C renal, 7.99 µM with OVCAR-5 ovarian, 4.31 µM with NCI-H23 lung and 3.51 µM with KM12 colon. Moreover, the TGI was found to be 9.85 µM in the assay on CCRF-CEM leukemia; 4.97 µM in the assay with HL-60(TB) leukemia; 29.8 µM with NCI-H226 lung; 16.3 µM in the assay on ACHN renal; 16.4 µM with TK-10 renal; 3.76 µM in the assay on SF-539 CNS. In addition, the TGI in the assay with SN12C renal was 25.7 µM; with OVCAR-5 ovarian, 22.5 µM; in the assay on NCI-H23 lung it was 18.2 µM; with KM12 colon, 13.2 µM.
Consider `CC(C)(C)n1cc(-c2ccnc(NCCNS(=O)(=O)c3ccc(Br)cc3)c2)c(-c2cccc(O)c2)n1`, for which the GI50 in the assay on CCRF-CEM leukemia is 2.69 µM; with HL-60(TB) leukemia, 0.581 µM; in the assay on NCI-H226 lung, 2.07 µM; in the assay on ACHN renal, 2.1 µM; in the assay on TK-10 renal it was 2.24 µM; in the assay with SF-539 CNS, 1.54 µM. For the same compound, the GI50 with SN12C renal was 1.72 µM; in the assay with OVCAR-5 ovarian, 1.78 µM; in the assay on NCI-H23 lung it was 1.85 µM; in the assay on KM12 colon, 1.99 µM. In addition, the TGI with CCRF-CEM leukemia was determined as 18.2 µM; with HL-60(TB) leukemia it was 2.88 µM; in the assay on NCI-H226 lung, 5.32 µM; in the assay on ACHN renal it was 4.39 µM; in the assay with TK-10 renal, 5.93 µM; in the assay with SF-539 CNS, 3.11 µM. Moreover, the TGI in the assay on SN12C renal stood at 3.2 µM; in the assay with OVCAR-5 ovarian it was 3.53 µM; in the assay on NCI-H23 lung it was 3.97 µM; in the assay on KM12 colon, 4.32 µM.
Regarding `CCN(CC)CCC(=O)Nc1ccc(Cn2nnc3c2C(=O)c2nnn(Cc4ccc(NC(=O)CCN(CC)CC)cc4)c2C3=O)cc1`, the GI50 in the assay with CCRF-CEM leukemia was 0.24 µM; in the assay on HL-60(TB) leukemia, 0.228 µM; with NCI-H226 lung it was 1.51 µM; in the assay on ACHN renal it was 12.5 µM; with TK-10 renal it was 13.2 µM; in the assay with SF-539 CNS, 0.295 µM. Besides, the GI50 with SN12C renal was 0.184 µM; in the assay with OVCAR-5 ovarian, 0.994 µM; with NCI-H23 lung, 0.326 µM; with KM12 colon, 0.728 µM. The TGI in the assay with HL-60(TB) leukemia is 0.628 µM; in the assay on NCI-H226 lung, 3.46 µM; with ACHN renal, 34.1 µM; with TK-10 renal, 30.8 µM; in the assay with SF-539 CNS it was 0.821 µM; in the assay with SN12C renal, 0.385 µM. Besides, the values for the TGI with OVCAR-5 ovarian, with NCI-H23 lung and in the assay on KM12 colon were 3.34 µM, 1.22 µM and 2.46 µM, respectively.
With `COc1ccccc1Cn1cc2c(c1)-c1oncc1CC2`, the GI50 is 0.29 µM with CCRF-CEM leukemia; 0.268 µM in the assay on HL-60(TB) leukemia; 6.99 µM in the assay on NCI-H226 lung; 2.12 µM in the assay with ACHN renal; 2.67 µM with TK-10 renal; 0.453 µM in the assay on SF-539 CNS. The GI50 with SN12C renal was 0.728 µM; in the assay on OVCAR-5 ovarian, 0.756 µM; with NCI-H23 lung, 0.8 µM; in the assay with KM12 colon, 0.435 µM. Moreover, the TGI in the assay on HL-60(TB) leukemia is 0.814 µM; in the assay with NCI-H226 lung, above 100 µM; in the assay on ACHN renal, above 100 µM; in the assay with TK-10 renal, above 78 µM; with SF-539 CNS, 5.13 µM; in the assay on SN12C renal, above 100 µM. For the same compound, the TGI with OVCAR-5 ovarian is above 74.1 µM; in the assay with NCI-H23 lung, above 55.3 µM; with KM12 colon, 6.94 µM.
Consider `CC1Cc2c(N(C)C)ncnc2N(C)c2ccc(Cl)cc21` (stereo not drawn), for which the GI50 in the assay with CCRF-CEM leukemia was 2.92 µM; with HL-60(TB) leukemia it was 2.81 µM; in the assay on NCI-H226 lung, 11 µM; with ACHN renal, 7.59 µM; in the assay with TK-10 renal it was 14.8 µM; in the assay with SF-539 CNS, 2.93 µM. For the same compound, the values for the GI50 with SN12C renal, in the assay with NCI-H23 lung and in the assay on KM12 colon were 10.2 µM, 5.74 µM and 3.15 µM, respectively. The TGI with CCRF-CEM leukemia is 18 µM; with HL-60(TB) leukemia, 15.8 µM; in the assay with NCI-H226 lung, 57.8 µM; in the assay with ACHN renal, above 100 µM; in the assay on TK-10 renal, above 100 µM; in the assay with SF-539 CNS it was 12.2 µM. Moreover, the figures for the TGI with SN12C renal, in the assay with NCI-H23 lung and in the assay on KM12 colon were 37.1 µM, above 100 µM and above 100 µM, respectively.
Take `Oc1cccc(-c2nc3ccccc3s2)c1`: the TGI is above 100 µM in the assay with CCRF-CEM leukemia; above 100 µM in the assay with HL-60(TB) leukemia; 73 µM with NCI-H226 lung; above 100 µM in the assay on ACHN renal; above 100 µM with SF-539 CNS; above 100 µM with SN12C renal. Also, the TGI in the assay with OVCAR-5 ovarian was 51.5 µM; in the assay with NCI-H23 lung, 69.6 µM; in the assay with KM12 colon, 48.6 µM.
Turning to `Cc1cc(N(CCC#N)S(=O)(=O)c2ccccc2)ccc1C=O`, the TGI in the assay with CCRF-CEM leukemia, in the assay with HL-60(TB) leukemia, in the assay with NCI-H226 lung, in the assay on ACHN renal, in the assay with SF-539 CNS and in the assay on SN12C renal was above 100 µM in each case. The TGI with OVCAR-5 ovarian, with NCI-H23 lung and in the assay on KM12 colon was above 100 µM throughout.
As for `O=C(O)c1cc(Cl)cc(NC(=O)C(Cl)Cl)c1Cl`, the TGI in the assay with CCRF-CEM leukemia, with HL-60(TB) leukemia, in the assay with NCI-H226 lung, in the assay on ACHN renal, in the assay with TK-10 renal and with SF-539 CNS was above 100 µM throughout. In addition, the TGI with SN12C renal, in the assay on NCI-H23 lung and in the assay with KM12 colon was above 100 µM each time.
In the case of `Cc1nn(-c2ccccc2)c2c1C1C(=C(c3ccc(Cl)cc3)N2)C(=O)Nc2ccccc21` (stereo not drawn), the GI50 with CCRF-CEM leukemia was 2.66 µM; with HL-60(TB) leukemia, 2.25 µM; with NCI-H226 lung, 7.34 µM; in the assay on ACHN renal, 3.51 µM; in the assay on SF-539 CNS, 3.15 µM; in the assay on SN12C renal, 4.96 µM. Also, the figures for the GI50 in the assay on OVCAR-5 ovarian, in the assay on NCI-H23 lung and in the assay on KM12 colon were 2.27 µM, 4.46 µM and 3.6 µM, respectively. For the same compound, the TGI is 8.67 µM in the assay on CCRF-CEM leukemia; 5.25 µM with HL-60(TB) leukemia; 36 µM in the assay with NCI-H226 lung; above 100 µM in the assay with ACHN renal; 12.9 µM in the assay with SF-539 CNS; 32.2 µM in the assay on SN12C renal. Further, the TGI amounted to 7.68 µM in the assay on OVCAR-5 ovarian, 47.9 µM in the assay with NCI-H23 lung and 20.8 µM in the assay with KM12 colon.
Take `COC(=O)c1cc(Nc2ccc(O)c3c2C(=O)c2c([N+](=O)[O-])ccc(O)c2C3=O)cc(C(=O)OC)c1`: the GI50 was 4.27 µM in the assay on CCRF-CEM leukemia; 18.4 µM with HL-60(TB) leukemia; 20.1 µM with NCI-H226 lung; 21.3 µM with ACHN renal; 60 µM in the assay on SF-539 CNS; 21.4 µM with SN12C renal. In addition, the GI50 in the assay on OVCAR-5 ovarian is 26 µM; with KM12 colon, 34.5 µM. Also, the TGI in the assay with CCRF-CEM leukemia was above 100 µM; in the assay on HL-60(TB) leukemia it was 88.2 µM; with NCI-H226 lung it was above 100 µM; in the assay on ACHN renal it was above 100 µM; with SF-539 CNS, above 100 µM; with SN12C renal, above 100 µM. In addition, the TGI in the assay with OVCAR-5 ovarian and in the assay on KM12 colon was above 100 µM throughout.
Take `Cc1ccc([P+](Cc2ccc([N+](=O)[O-])cc2)(c2ccc(C)cc2)c2ccc(C)cc2)cc1`: the GI50 in the assay on CCRF-CEM leukemia is 1.92 µM; with HL-60(TB) leukemia, 0.997 µM; with NCI-H226 lung it was 5.31 µM; in the assay with ACHN renal, 15.8 µM; with SF-539 CNS, 4.06 µM; with SN12C renal it was 4.27 µM. Also, the GI50 in the assay on OVCAR-5 ovarian is 6.68 µM; in the assay on KM12 colon, 2.44 µM. Also, the TGI turned out to be 12.5 µM with CCRF-CEM leukemia; 3.14 µM in the assay with HL-60(TB) leukemia; 21.4 µM with NCI-H226 lung; 38.4 µM with ACHN renal; 15.9 µM in the assay with SF-539 CNS; 17.5 µM with SN12C renal. Further, the TGI in the assay on OVCAR-5 ovarian was 23.3 µM; in the assay on KM12 colon, 10.2 µM.
As for `CN1CC2(CCCCC2)C(O)C12C=CCCC2` (stereo not drawn), the TGI with CCRF-CEM leukemia, in the assay on HL-60(TB) leukemia, in the assay on NCI-H226 lung, with TK-10 renal, with SF-539 CNS and with SN12C renal was above 100 µM in each case. Further, the TGI with NCI-H23 lung and in the assay with KM12 colon was above 100 µM each time.
On to `CCCCCCCCCCCCCCCC[N+]1(CC)CCCC1`, for which the GI50 was 0.379 µM with CCRF-CEM leukemia; 0.339 µM in the assay on HL-60(TB) leukemia; 1.18 µM in the assay with NCI-H226 lung; 1.33 µM in the assay with ACHN renal; 0.266 µM in the assay on TK-10 renal; 0.683 µM in the assay on SF-539 CNS. Moreover, the figures for the GI50 in the assay with SN12C renal, in the assay with OVCAR-5 ovarian and with KM12 colon were 1.1 µM, 0.439 µM and 0.73 µM, respectively. Besides, the TGI was determined as 1.84 µM in the assay with CCRF-CEM leukemia; 1.14 µM with HL-60(TB) leukemia; 5.95 µM in the assay on NCI-H226 lung; 4.43 µM in the assay with ACHN renal; 1.21 µM with TK-10 renal; 1.98 µM with SF-539 CNS. Besides, the figures for the TGI in the assay with SN12C renal, in the assay with OVCAR-5 ovarian and with KM12 colon were 2.44 µM, 1.81 µM and 2.04 µM, respectively.
In the case of `CC1=C(C#N)C(N)=C2C(C)=C(C#N)C(N)=C12`, the TGI in the assay on CCRF-CEM leukemia, with HL-60(TB) leukemia, with NCI-H226 lung, in the assay with TK-10 renal, with SF-539 CNS and in the assay on SN12C renal was above 100 µM in each case. Besides, the TGI in the assay with OVCAR-5 ovarian, in the assay with NCI-H23 lung and with KM12 colon was above 100 µM throughout.
